Assay results published in patent US20070128217A1 (priority 2003, published 2007).

Assays:
[1] = system: rabbit serum obtained by immunizing a rabbit with the SARS-CoV strain Frankfurt 1; format: binding; parameters: Binding of a rabbit serum to linear peptides / Binding of a rabbit serum to looped peptides / Rabbit serum linear peptides / Rabbit serum looped peptides / Binding of a rabbit serum to linear peptides of protein N of SARS-CoV Urbani (Rabbit serum linear peptides) / Binding of a rabbit serum to looped/cyclic peptides of protein N of SARS-CoV Urbani (Rabbit serum looped peptides): unit not given here
[2] = system: control sera (pooled serum of ten healthy LUMC hospital workers; commercial negative donor pooled serum from the Dutch bloodbank); format: binding, human
[3] = system: antibodies in sera from SARS patients (sera 1a, 1b, 2, 6, 37, 62, London, SARS-yellow, SARS-green); format: binding, human

Sequence	Binding of a rabbit serum to linear peptides [1]	Binding of a rabbit serum to looped peptides [1]	Binding of Control Serum Blood-Bank to Looped peptides [2]	Binding of Control serum Blood-bank to linear peptides [2]	Binding of Control serum LUMC to linear peptides [2]	Binding of Control serum LUMC to looped peptides [2]	Binding of serum 1a to linear peptides of protein E of SARS-CoV Urbani [3]	Binding of serum 1a to looped/cyclic peptides of protein E of SARS-CoV Urbani [3]	Binding of serum 1b to linear peptides of protein E of SARS-CoV Urbani [3]	Binding of serum 1b to looped/cyclic peptides of protein E of SARS-CoV Urbani [3]	Binding of serum 2 to linear peptides of protein E of SARS-CoV Urbani [3]	Binding of serum 2 to looped/cyclic peptides of protein E of SARS-CoV Urbani [3]	Binding of serum 6 to linear peptides of protein E of SARS-CoV Urbani [3]	Binding of serum 6 to looped/cyclic peptides of protein E of SARS-CoV Urbani [3]	Binding of serum 37 to linear peptides of protein E of SARS-CoV Urbani [3]	Binding of serum 37 to looped/cyclic peptides of protein E of SARS-CoV Urbani [3]	Binding of serum 62 to linear peptides of protein E of SARS-CoV Urbani [3]	Binding of serum 62 to looped/cyclic peptides of protein E of SARS-CoV Urbani [3]	Binding of serum London to linear peptides of protein E of SARS-CoV Urbani [3]	Binding of serum London to looped/cyclic peptides of protein E of SARS-CoV Urbani [3]	other results
SVLLFLAFVVFLLVT	0.6	0.2	0.6	0.7	0.5	0.7	0.8	0.6	0.7	0.5	0.5	0.5	0.9	0.4	0.8	0.6	0.7	0.6	0.5	0.4	Binding of serum SARS-green to linear peptides of protein E of SARS-CoV Urbani [3]: 0.5; Binding of serum SARS-green to looped/cyclic peptides of protein E of SARS-CoV Urbani [3]: 0.6; Binding of serum SARS-yellow to linear peptides of protein E of SARS-CoV Urbani [3]: 0.3; Binding of serum SARS-yellow to looped/cyclic peptides of protein E of SARS-CoV Urbani [3]: 0.6
TLIVNSVLLFLAFVV	0.1	0.3	0.8	0.6	0.4	0.8	0.7	0.6	0.5	0.5	0.4	0.7	0.5	0.4	0.5	0.7	0.3	0.6	0.6	0.4	Binding of serum SARS-green to linear peptides of protein E of SARS-CoV Urbani [3]: 0.6; Binding of serum SARS-green to looped/cyclic peptides of protein E of SARS-CoV Urbani [3]: 0.5; Binding of serum SARS-yellow to linear peptides of protein E of SARS-CoV Urbani [3]: 0.3; Binding of serum SARS-yellow to looped/cyclic peptides of protein E of SARS-CoV Urbani [3]: 0.6
FVVFLLVTLAILTAL	0.2	0.2	0.7	0.5	0.5	0.6	0.6	0.4	0.4	0.4	0.5	0.4	0.3	0.6	0.4	0.5	0.3	0.6	0.5	0.4	Binding of serum SARS-green to linear peptides of protein E of SARS-CoV Urbani [3]: 0.5; Binding of serum SARS-green to looped/cyclic peptides of protein E of SARS-CoV Urbani [3]: 0.4; Binding of serum SARS-yellow to linear peptides of protein E of SARS-CoV Urbani [3]: 0.2; Binding of serum SARS-yellow to looped/cyclic peptides of protein E of SARS-CoV Urbani [3]: 0.6
